{
  "source": "patent US20080261201A1",
  "about": "“Methods and compounds to alter virus infection” (priority 2006, published 2008)",
  "test_system": "Rac1",
  "assay": "HA-Rac1 incorporation into vesicular fractions of MCF-7 cells, Western blot",
  "format": "cell-based",
  "conditions": "IL-1β 1 ng/mL for 20 minutes",
  "method": "Buoyant density centrifugation was used for subcellular fractionation and isolation of endosomes containing Nox2 activity. Cells were washed twice with ice-cold PBS and scrapped into a 1.5 mL microfuge tube using the same buffer. The cells were pelleted and resuspended in homogenization buffer (HMB) containing 0.25 M sucrose, 20 mM HEPES pH 7.4, 1 mM EDTA, and an EDTA-free protease inhibitor cocktail. The cells were homogenized using nitrogen cavitation in a cell disruption high-pressure chamber (Parr instruments, Moline, Ill.). The pressure was raised to 650-psi for 5 minutes and released suddenly. The homogenate was centrifuged at 3000×g for 15 minutes to pellet unbroken cells, nuclei, and heavy mitochondria. The heavy mitochondrial supernatant (HMS) was bottom loaded into an iodixanol discontinuous gradient in a 12.5 mL SW41Ti ultracentrifuge tube using a previously described method with modifications (Graham et al., 1994; Xia et al., 1998).\nThe discontinuous gradient was composed of 1.25 mL HMB without EDTA followed by bottom loading of the following % iodixanol steps sequentially with 1.0 mL 2.5%, 1.0 mL 5%, 1.5 mL 9%, 1.5 mL 14%, 2.5 mL 19%, 1.5 mL 26%, and finally the HMS in 2 mL 32%. Iodixanol concentrations were prepared fresh using a 50% iodixanol working solution (WS) diluted with HMB without EDTA. […]",
  "data": [
    {"substance": "IL-1β: interleukin used to stimulate MCF-7 cells", "values": [
      {"measurement": "HA-Rac1 incorporation into crude vesicular fractions", "result": "significantly enhanced"}
    ]}
  ]
}
